Test results published in PubChem BioAssay AID272 (DTP/NCI, 2004).
Several values for one entry are separate records, joined by “and”; a condition that tells them apart may be missing. Identical values can stand only once. Results filed as inconclusive are left out.

System: Lewis lung carcinoma i.m., BDF1 mice, T/C %
Assay: NCI In Vivo Anticancer Drug Screen. Data for tumor model Lewis Lung Carcinoma (intramuscular) in B6D2F1 (BDF1) mice
Method in brief: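 Transplantable tumour model; readout survival or tumour size; value = treated (T) / vehicle control (C).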

COC(=O)[CH](C[N+](=O)[O-])[Hg][Cl] (stereo unspecified)
T/C (endpoint: mean tumor weight (est.), dose: 3.12 mg/kg/injection, schedule: Q01DX011 (ip), vehicle: saline, higher = larger tumour): 79 % of control | T/C (endpoint: mean tumor weight (est.), dose: 6.25 mg/kg/injection, schedule: Q01DX011 (ip), vehicle: saline, higher = larger tumour): 69 % of control | T/C (endpoint: mean tumor weight (est.), dose: 12.5 mg/kg/injection, schedule: Q01DX011 (ip), vehicle: saline, higher = larger tumour): 71 % of control | T/C (endpoint: median survival time, dose: 3.12 mg/kg/injection, schedule: Q01DX011 (ip), vehicle: saline, higher = longer survival): 107 % of control | T/C (endpoint: median survival time, dose: 6.25 mg/kg/injection, schedule: Q01DX011 (ip), vehicle: saline, higher = longer survival): 115 % of control | T/C (endpoint: median survival time, dose: 12.5 mg/kg/injection, schedule: Q01DX011 (ip), vehicle: saline, higher = longer survival): 88 % of control

CN(Cc1cnc2nc(N)nc(N)c2n1)c1ccc(C(=O)N[C@@H](CCC(=O)O)C(=O)O)cc1
T/C (endpoint: mean tumor weight, dose: 0.23 mg/kg/injection, schedule: Q01DX009 (ip), vehicle: sodium bicarbonate, higher = larger tumour): 107 % of control | T/C (endpoint: mean tumor weight, dose: 0.31 mg/kg/injection, schedule: Q01DX011 (ip), vehicle: other, higher = larger tumour): 86 % of control and 100 % of control and 109 % of control | T/C (endpoint: mean tumor weight, dose: 0.39 mg/kg/injection, schedule: Q01DX009 (ip), vehicle: sodium bicarbonate, higher = larger tumour): 71 % of control | T/C (endpoint: mean tumor weight, dose: 0.65 mg/kg/injection, schedule: Q01DX009 (ip), vehicle: sodium bicarbonate, higher = larger tumour): 48 % of control and 69 % of control | T/C (endpoint: mean tumor weight, dose: 1.08 mg/kg/injection, schedule: Q01DX009 (ip), vehicle: sodium bicarbonate, higher = larger tumour): 53 % of control and 59 % of control | T/C (endpoint: mean tumor weight, dose: 1.8 mg/kg/injection, schedule: Q01DX009 (ip), vehicle: sodium bicarbonate, higher = larger tumour): 40 % of control and 44 % of control | T/C (endpoint: mean tumor weight, dose: 2.5 mg/kg/injection, schedule: Q01DX011 (ip), vehicle: other, higher = larger tumour): 94 % of control | T/C (endpoint: mean tumor weight, dose: 23.0 mg/kg/injection, schedule: Q04DX003 (ip), vehicle: sodium bicarbonate, higher = larger tumour): 57 % of control | T/C (endpoint: mean tumor weight, dose: 39.0 mg/kg/injection, schedule: Q04DX003 (ip), vehicle: sodium bicarbonate, higher = larger tumour): 33 % of control | T/C (endpoint: mean tumor weight, dose: 65.0 mg/kg/injection, schedule: Q04DX003 (ip), vehicle: sodium bicarbonate, higher = larger tumour): 13 % of control | T/C (endpoint: median survival time, dose: 0.12 mg/kg/injection, schedule: Q01DX011 (ip), vehicle: sodium bicarbonate, higher = longer survival): 123 % of control | T/C (endpoint: median survival time, dose: 0.23 mg/kg/injection, schedule: Q01DX009 (ip), vehicle: sodium bicarbonate, higher = longer survival): 90 % of control and 93 % of control | T/C (endpoint: median survival time, dose: 0.25 mg/kg/injection, schedule: Q01DX011 (ip), vehicle: sodium bicarbonate, higher = longer survival): 112 % of control and 122 % of control | T/C (endpoint: median survival time, dose: 0.39 mg/kg/injection, schedule: Q01DX009 (ip), vehicle: sodium bicarbonate, higher = longer survival): 118 % of control and 121 % of control | T/C (endpoint: median survival time, dose: 0.5 mg/kg/injection, schedule: Q01DX011 (ip), vehicle: sodium bicarbonate, higher = longer survival): 108 % of control and 109 % of control | T/C (endpoint: median survival time, dose: 1.0 mg/kg/injection, schedule: Q01DX011 (ip), vehicle: sodium bicarbonate, higher = longer survival): 107 % of control | T/C (endpoint: median survival time, dose: 2.0 mg/kg/injection, schedule: Q01DX011 (ip), vehicle: sodium bicarbonate, higher = longer survival): 121 % of control | T/C (endpoint: median survival time, dose: 3.0 mg/kg/injection, schedule: Q01DX009 (ip), vehicle: sodium bicarbonate, higher = longer survival): 32 % of control | T/C (endpoint: median survival time, dose: 14.0 mg/kg/injection, schedule: Q04DX003 (ip), vehicle: sodium bicarbonate, higher = longer survival): 89 % of control | T/C (endpoint: median survival time, dose: 23.0 mg/kg/injection, schedule: Q04DX003 (ip), vehicle: sodium bicarbonate, higher = longer survival): 90 % of control and 98 % of control | T/C (endpoint: median survival time, dose: 39.0 mg/kg/injection, schedule: Q04DX003 (ip), vehicle: sodium bicarbonate, higher = longer survival): 100 % of control and 112 % of control | T/C (endpoint: median survival time, dose: 65.0 mg/kg/injection, schedule: Q04DX003 (ip), vehicle: sodium bicarbonate, higher = longer survival): 34 % of control and 112 % of control

CC(=O)O[C@H]1[C@H]2O[C@]23[C@@H]2CC[C@@H]4C[C@@H](O)CC[C@]4(C)[C@H]2CC[C@]3(C)[C@H]1c1ccc(=O)oc1
T/C (endpoint: mean tumor weight (est.), dose: 7.5 mg/kg/injection, schedule: Q01DX011 (ip), vehicle: other, higher = larger tumour): 94 % of control | T/C (endpoint: median survival time, dose: 7.5 mg/kg/injection, schedule: Q01DX011 (ip), vehicle: other, higher = longer survival): 90 % of control

O=c1[nH]c2cc(Cl)ccc2c(CCl)c1Cl
T/C (endpoint: mean tumor weight, dose: 25.0 mg/kg/injection, schedule: Q01DX011 (ip), vehicle: saline, higher = larger tumour): 112 % of control | T/C (endpoint: mean tumor weight, dose: 50.0 mg/kg/injection, schedule: Q01DX011 (ip), vehicle: saline, higher = larger tumour): 101 % of control | T/C (endpoint: mean tumor weight, dose: 100.0 mg/kg/injection, schedule: Q01DX011 (ip), vehicle: saline, higher = larger tumour): 115 % of control | T/C (endpoint: median survival time, dose: 25.0 mg/kg/injection, schedule: Q01DX011 (ip), vehicle: saline, higher = longer survival): 95 % of control | T/C (endpoint: median survival time, dose: 50.0 mg/kg/injection, schedule: Q01DX011 (ip), vehicle: saline, higher = longer survival): 102 % of control | T/C (endpoint: median survival time, dose: 100.0 mg/kg/injection, schedule: Q01DX011 (ip), vehicle: saline, higher = longer survival): 89 % of control
